The values below are quoted from earlier work in patent US20100317664A1, “METHODS OF AFFECTING GASTROINTESTINAL TRANSIT AND GASTRIC EMPTYING, AND COMPOUNDS USEFUL THEREIN” (priority 2007, published 2010).

One data set deals with rats. The note with it: parenteral injection to rats.

The structures appear in SMILES notation.

Take `N[C@@H](Cc1ccc(Cl)cc1)C(=O)O` (racemic) [p-chlorophenylalanine]: the gastrointestinal motility entry in the data set with rats was “decreased their gastrointestinal motility”. In the data set on humans (in vivo), the adverse psychological effects entry is “adverse psychological effects, such as dizziness, nausea and uneasiness”; the “entry into the central nervous system” value was “readily gets into the central nervous system”. The constipation entry with humans (oral administration, high doses (3000 mg/day), humans) is listed as “causes constipation”.
